Results on four molecules are retold here after US10329324B2 (viDA Therapeutics Inc., priority 2013, dated 2019).

Each structure is given as a SMILES string. Where two headings read alike, the source gives them in different places.

One data set addresses T1, human Granzyme B (hGzmB) (Homo sapiens, UniProt P10144).
T1 construct: purchased Froelich Lab, Northshore University Health Systems Research Institute, Evanston, Ill., USA
The data set can be described thus: Human Granzyme B enzymatic inhibition assay (fluorogenic, kinetic). It is filed as biochemical. Conditions: activity codes, Table 7; read-out: IC50 Activity Range. The gist of the method:
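Human Granzyme B preincubated with compound for 30 min total (5 min shaking, 20 min bench, then reaction temperature). Fluorogenic substrate added and read kinetically, 25 cycles at 1-min intervals. Percent inhibition at one or two concentrations or 8–12-point 3-fold dose response from 20 uM, replicates, with IC50 by non-linear regression.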

Another data set concerns the target GzmB (Homo sapiens, UniProt P10144). Nature of the data set: Inhibition of fibronectin cleavage by GzmB. It is filed as biochemical. Conditions: 20 nM granzyme B, labeled fibronectin; for inhibition at 0.62 µM: 0.62 uM inhibitor, read-out: Percent Inhibition at Inhibitor Concentration 0.62 uM; for inhibition at 5.56 µM: 5.56 uM inhibitor, read-out: Percent Inhibition at Inhibitor Concentration 5.56 uM; for inhibition at 50 µM: 50 uM inhibitor, read-out: Percent Inhibition at Inhibitor Concentration 50 uM. As for the experimental part:
Black, 96 well high-binding assay plates (Griener Bio-one) were treated overnight at 4° C. with 40 uL of 8 ug/mL Hilyte Fluor 488 labeled Fibronectin (Cytoskeleton, Inc). After fibronectin coating, plates were washed 3 times in buffer (20 mM Tris-HCl, pH 7.4, 20 mM NaCl) then once with granzyme B assay buffer (50 mM HEPES, pH 7.5, 0.1% CHAPS). After washing, 50 uL of granzyme B assay buffer was added to each fibronectin-coated well. In a separate non-binding 96 well assay plate 5 uL of 20× inhibitor serial dilution stocks were added to 45 uL of 2.22×GzmB mix to establish inhibition (enzyme/inhibitor mixes were all prepared in granzyme B assay buffer and were incubated first at room temperature for 20 minutes, then at 30° C. for another 10 minutes). After incubation, 50 uL of this 2× enzyme/inhibitor mix was added to the corresponding coated well to initiate fibronectin cleavage (20 nM final granzyme B concentration, 8-point inhibitor dilution series starting at 50 uM). The assay was conducted at 30° C. in the TECAN plate reader (TECAN INFINITE® M1000 Pro), which was programmed to monitor the kinetic fluorescence polarization signal (filter set Ex/Em 470 nm/527 nm) with readings taken every minute, for 1 hour. Proteolytic activity was evaluated as the rate of fluorescence enhancement in the parallel emission over the linear range of the reaction. % Inhibition values were calculated from assay controls and the resulting date is shown in Table 8.

Data set [1] in a line: Kinetic solubility determination in PBS. It counts as physicochemical. Conditions: phosphate buffered saline (PBS 1×), 21 °C, pH 7.4, aqueous buffer, kinetic from dmso stock, PBS 1X pH 7.4, 2.0% DMSO, 24 hour incubation at ambient temperature. The gist of the method: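 DMSO stocks were diluted into PBS (1×) pH 7.4 to 2.0% final DMSO and a maximum theoretical concentration of typically 200 μM. After 24 hour incubation at ambient temperature (20.5-21.7° C.), samples were vacuum filtered. The filtrate was quantified by chemiluminescent nitrogen detection against a nitrogen calibration curve, with background-corrected values given in μM and μg/mL.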

Where [2] appears, read: read-out: Solubility in aqueous PBS Buffer (1X, pH 7.4).
The mark [3] stands for this setting: read-out: Solubility in aqueous PBS Buffer (1X, pH 7.4), ug/mL.

A word on the IC50: it is the point on the concentration scale where inhibition reaches its midpoint.

Chain of GzmB (P10144 21-247): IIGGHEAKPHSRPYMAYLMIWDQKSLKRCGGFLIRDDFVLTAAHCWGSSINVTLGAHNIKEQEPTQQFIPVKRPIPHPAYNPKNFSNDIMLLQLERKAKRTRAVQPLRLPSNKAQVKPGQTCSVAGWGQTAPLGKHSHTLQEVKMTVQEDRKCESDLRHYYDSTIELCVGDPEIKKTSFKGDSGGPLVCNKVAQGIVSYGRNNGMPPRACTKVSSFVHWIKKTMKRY
T1 sequence (P10144 21-247): as above

For `CC[C@H](C)[C@H](NC(=O)CCC(=O)O)C(=O)NCC(=O)N1c2ccccc2C[C@H]1C(=O)NCc1nn[nH]n1` [Example A13, 3-{[(1S,2S)-2-Methyl-1-({2-Oxo-2-[(2S)-2-[(2H-1,2,3,4-Tetrazol-5-Ylmethyl)Carbamoyl]-2,3-Dihydro-1H-Indol-1-Yl]Ethyl}Carbamoyl)Butyl]Carbamoyl}Propanoic Acid], the IC50 at human Granzyme B (hGzmB) was under 100 nM. Further, on GzmB, the inhibition at 0.62 µM worked out at 11%, the inhibition at 5.56 µM amounted to 52% and the inhibition at 50 µM worked out at 82%. The solubility at 24 h in data set [1] (setting [2]) is over 750 µM. In data set [1] (setting [3]), the solubility at 24 h is over 386 µg/mL.

In the case of `CC[C@H](C)[C@H](NC(=O)Cc1csc2ccccc12)C(=O)NCC(=O)N1c2ccccc2C[C@H]1C(=O)NCc1nn[nH]n1` [Example A27, (2S)-1-{2-[(2S,3S)-2-[2-(1-Benzothiophen-3-Yl)Acetamido]-3-Methylpentanamido]Acetyl}-N-(2H-1,2,3,4-Tetrazol-5-Ylmethyl)-2,3-Dihydro-1H-Indole-2-Carboxamide], the IC50 at human Granzyme B (hGzmB) is under 100 nM. In addition, at GzmB, the inhibition at 0.62 µM worked out at 57%, the inhibition at 5.56 µM was determined as 96% and the inhibition at 50 µM is 102%. Further, the solubility at 24 h in data set [1] (setting [2]) was found to be 53 µM. In addition, the solubility at 24 h in data set [1] (setting [3]) was determined as 31 µg/mL.

In the case of `CC[C@H](C)[C@H](NC(=O)Cc1nn[nH]n1)C(=O)NCC(=O)N1c2ccccc2C[C@H]1C(=O)NCc1nn[nH]n1` [Example A28, (2S)-1-{2-[(2S,3S)-3-Methyl-2-[2-(2H-1,2,3,4-Tetrazol-5-Yl)Acetamido]Pentanamido]Acetyl}-N-(2H-1,2,3,4-Tetrazol-5-Ylmethyl)-2,3-Dihydro-1H-Indole-2-Carboxamide], the half-inhibitory concentration (IC50) on human Granzyme B (hGzmB) is under 100 nM. Besides, at GzmB, the inhibition at 0.62 µM stood at 45%, the inhibition at 5.56 µM was found to be 79% and the inhibition at 50 µM is 98%. The solubility at 24 h in data set [1] (setting [2]) is over 750 µM. In addition, the solubility at 24 h in data set [1] (setting [3]) was over 393 µg/mL.

`CC[C@H](C)[C@H](NC(=O)CCC(C)(C)C(=O)O)C(=O)NCC(=O)N1c2ccccc2C[C@H]1C(=O)NCc1nn[nH]n1` [Example A52, 2,2-Dimethyl-4-{[(1S,2S)-2-Methyl-1-({2-Oxo-2-[(2S)-2-[(2H-1,2,3,4-Tetrazol-5-Ylmethyl)Carbamoyl]-2,3-Dihydro-1H-Indol-1-Yl]Ethyl}Carbamoyl)Butyl]Carbamoyl}Butanoic Acid]: the IC50 at human Granzyme B (hGzmB) was under 100 nM. Also, the solubility at 24 h in data set [1] (setting [2]) was over 750 µM; in data set [1] (setting [3]), over 418 µg/mL.
